The numbers were not newly measured in patent publication US20220354784A1, “STABLE LATANOPROST COMPOUND OPHTHALMIC COMPOSITIONS” (Somerset Therapeutics LLC, priority 2021, published 2022), which cites them from elsewhere.

The structures appear in SMILES notation.

The conditions of this data set: patients starting on monotherapy.
On to `CC(C)OC(=O)CCC/C=C\C[C@@H]1[C@@H](CC[C@@H](O)CCc2ccccc2)[C@H](O)C[C@@H]1O` [latanoprost, isopropyl (Z)-7[(1R,2R,3R,5S)3,5-dihydroxy-2-[(3R)-3-hydroxy-5-phenylpentyl]cyclopentyl]-5-heptanoate], for which the “rate of adjunctive medication use” value was 30.2%. Consider `CCNC(=O)CCC/C=C\C[C@@H]1[C@@H](/C=C/[C@@H](O)CCc2ccccc2)[C@H](O)C[C@@H]1O` [bimatoprost], for which the “rate of adjunctive medication use” value is 23.2%. In the case of `CC(C)OC(=O)CCC/C=C\C[C@@H]1[C@@H](/C=C/[C@@H](O)COc2cccc(C(F)(F)F)c2)[C@H](O)C[C@@H]1O` [travoprost], the “rate of adjunctive medication use” value was 22.5%.
